In ChEMBL document CHEMBL1806349, “Improved performance by replacing iminodiacetic residues with glyceryl residues in symmetrically branched oligoglycerols” (Bioorg Med Chem Lett, 2011) one finds AUC(0-t) and solubility data, which are given here for four compounds.

Data set [1] can be described thus: AUC (0 to 24 hrs) in iv dosed Crl:CD(SD) rat. Type of data set: ADME, organism-based. More on the design: time < 24 hr, route intravenous. Conditions: plasma.
Data set [2] can be described thus: Solubility of the compound in water. The data set is classed as physicochemical.

Structures are written as SMILES. In brackets after ≈: the same amount, converted by molar mass.

By AUC(0-t) is commonly meant the area under the concentration-time curve up to a stated or last time point. Read a high AUC(0-t) as more exposure. Take `CCCCCCCCCCCCCCCCCC(=O)OCC(CO[P+]([O-])(O)OCCNC(=O)CCC(=O)N(CC(=O)NC(COC(COC(CO)CO)COC(CO)CO)COC(COC(CO)CO)COC(CO)CO)CC(=O)NC(COC(COC(CO)CO)COC(CO)CO)COC(COC(CO)CO)COC(CO)CO)OC(=O)CCCCCCCCCCCCCCCCC` (centres undefined): the AUC(0-t) at 24 h in data set [1] was 95100 ng·h/mL.
As a reminder, the solubility is the dissolved amount per volume that the medium holds. On to `O=C(CCC(=O)NC(COC(CO)CO)COC(CO)CO)NCCCCCCCCNC(=O)c1ccccc1`, for which, in data set [2], the solubility came out at 350 mM (≈ 199 mg/mL).
In data set [1], `CCCCCCCCCCCCCCCCCC(=O)OCC(CO[P+]([O-])(O)OCCNC(=O)CCC(=O)N(CC(=O)N(CC(=O)NC(COC(CO)CO)COC(CO)CO)CC(=O)NC(COC(CO)CO)COC(CO)CO)CC(=O)N(CC(=O)NC(COC(CO)CO)COC(CO)CO)CC(=O)NC(COC(CO)CO)COC(CO)CO)OC(=O)CCCCCCCCCCCCCCCCC` (centres undefined) registered an AUC(0-t) at 24 h of 53100 ng·h/mL.
Consider `O=C(CCC(=O)N(CC(=O)NC(CO)CO)CC(=O)NC(CO)CO)NCCCCCCCCNC(=O)c1ccccc1`, for which the solubility in data set [2] was 21 mM (≈ 12.8 mg/mL).
